From paper PMC9102668, “Highly Cytotoxic Osmium(II) Compounds and Their Ruthenium(II) Analogues Targeting Ovarian Carcinoma Cell Lines and Evading Cisplatin Resistance Mechanisms” (International Journal of Molecular Sciences, 2022)

Legend:
Format in all cases: cell-based
[1] = system: A2780; experiment: MTT assay (CellTiter96), cytotoxic activity; details: 48 h incubation
Description: (§1) The biological behaviour of all substances was characterized by their cytotoxic activity against a panel of cell lines enabling an understanding of the structure-activity relationship. Cytotoxic activity was determined on ovarian carcinoma cell lines SKOV3 and A2780 as well as their Cisplatin resistant analogues (SKOV3cis and A2780cis) and the lung carcinoma cell line A549. Due to a low solubility in water, dmso is used as a solvent for the preparation of a dilution series in cell culture experiments. The toxic influence of dmso was determined earlier and experiments were carried out with 0.5% dmso in cell culture media and this concentration was used as reference sample in each MTT assay (details: Section 3). […] Resistance factors (RF) were determined for all substances (for IC50 values and RF of β-Hydroxydithiocinnamic acid esters L1–L18, see Tables S2 and S3, Supplementary part). All investigated ruthenium(II) compounds show lower RF values than Cisplatin on ovarian carcinoma cell lines, ranging from 0.2 to 1.5 (Table 3). Whereas the IC50 values on the non-resistant cell lines are in most cases higher than the IC50 of the reference substance, no increase of IC50 values is observed for the resistant cell lines. Contrary, eight ruthenium complexes show lower IC50 values on SKOV3cis than Cisplatin and four compounds on A2780cis. Thus, it can be concluded that these compounds are able to bypass the Cisplatin resistance mechanism in these cell lines pointing to a different mechanism of action.
(§2) Ovarian cancer cell lines were cultured under standard conditions (5% CO2, 37 °C, 90% humidity) in RPMI medium supplemented with 10% FCS, 100 U/mL penicillin and 100 µg/mL streptomycin (Life Technologies, Dreieich, Germany). Cisplatin (Sigma, Taufkirchen, Germany) was freshly dissolved at 1 mg/mL in 0.9% NaCl solution and diluted appropriately. New ruthenium(II) complexes and ligands were dissolved in dmso. Platinum-resistant A2780 and SKOV3 cells were established by repeated rounds of 3-day incubations with increasing amounts of Cisplatin starting with 0.1 µM. The concentration was doubled after 3 incubations, interrupted by recovery phases with normal medium. […] Determinations of IC50 values were carried out using the CellTiter96 non-radioactive proliferation assay (MTT assay, Promega, Mannheim, Germany). After seeding 5000 cells per well in a 96-well plate, cells were allowed to attach for 24 h and were incubated for 48 h with different concentrations of the substances ranging from 0 to 500 µM for Ruthenium and 0 to 1000 µM for ligand tests (0, 1, 10, 50, 100, 500, 1000 µm), for Cisplatin from 0 to 100 µM (0.1, 1, 5, 10, 50, 100 µM). Each measurement was done in triplicate and repeated 3 times. The proportion of viable cells was quantified by the MTT assay and after background subtraction relative values compared to the mean of medium controls were calculated. Non-linear regression analyses applying the Hill slope were run in GraphPad 5.0 software.

[2] = system: SKOV3cis; experiment: MTT assay (CellTiter96), cytotoxic activity; details: for IC50: Cisplatin resistant SKOV3, MTT assay, 48 h incubation; for RF SKOV3 (resistance factor): SKOV3cis vs SKOV3
Description: as §1, §2

[3] = system: A549; experiment: MTT assay (CellTiter96), cytotoxic activity; details: lung carcinoma cell line, 48 h incubation
Description: as §1, §2

[4] = system: SKOV3; experiment: MTT assay (CellTiter96), cytotoxic activity; details: 48 h incubation
Description: as §1, §2

[5] = system: A2780cis; experiment: MTT assay (CellTiter96), cytotoxic activity; details: for RF A2780 (resistance factor): A2780cis vs A2780; for IC50: Cisplatin resistant A2780, MTT assay, 48 h incubation
Description: as §1, §2

[6] = system: Cisplatin resistant cell lines; experiment: Mean IC50 (MTT assay) on Cisplatin resistant cell lines
Description: Thus, it can be concluded that the biological activity is mediated by a longer chain (butoxy) at the meta-position, whereas the ortho- and para-positions are more suitable with a shorter chain (ethoxy). To have a further look at the influence of the different ligand systems and substitution patterns, all β-Hydroxydithiocinnamic acid alkyl esters were tested under same conditions as their derived ruthenium(II) complexes (Figure 5B, Supplementary Table S3). […] All ligands are less cytotoxic than Cisplatin itself and therefore the metal(II) center is necessary for the high cytotoxic activity, what is in clear contrast to the literature for O,S-chelating ruthenium(II) or osmium(II) compounds with thiomaltol ligand [48, 71] but confirmed for Ru(II)/Os(II) compounds with N,N-bidentate glycosyl heterocyclic ligands. This is exemplarily shown by the comparison of mean IC50 values for Cisplatin, L14, and Ru14 (Supplementary Figure S8).
as §2

Row | Compound | IC50 [1] [µM] | IC50 [2] [µM] | RF SKOV3 (resistance factor) [2] | IC50 [3] [µM] | IC50 [4] [µM] | RF A2780 (resistance factor) [5] | IC50 [5] [µM] | mean IC50 value on Cisplatin resistant cell lines compared with Cisplatin [6]
1 | [(η^6-p-cymene)Ru(1-(4-methoxyphenyl)-3-(ethylthio)-3-thioxo-prop-1-en-1-olate-O,S)] [Ru12] | 11 | 12.7 | 0.5 | 6.9 | 24 | 0.9 | 10.1 | 
2 | CCSC(=S)C=C([O][Ru][Cl])c1ccccc1.Cc1ccc(C(C)C)cc1 [Ru2, [(η^6-p-cymene)Ru(1-phenyl-3-(ethylthio)-3-thioxo-prop-1-en-1-olate-O,S)Cl]] | 10 | 11.1 | 0.7 | 12.2 | 15.7 | 0.48 | 4.8 | lower
3 | [(η^6-p-cymene)Ru(1-(3-methoxyphenyl)-3-(ethylthio)-3-thioxo-prop-1-en-1-olate-O,S)] [Ru11] | 15.6 | 16.8 | 1 | 19 | 17 | 0.8 | 11.8 | 
4 | [(η^6-p-cymene)Ru(1-(2-methoxyphenyl)-3-(ethylthio)-3-thioxo-prop-1-en-1-olate-O,S)] [Ru10] | 14.6 | 17.7 | 0.6 | 27.7 | 27.7 | 0.8 | 11.7 | 
5 | [(η^6-p-cymene)Ru(1-(4-ethoxyphenyl)-3-(methylthio)-3-thioxo-prop-1-en-1-olate-O,S)] [Ru15] | 5.8 | 3.7 | 0.5 | 16.5 | 7.4 | 0.8 | 4.4 | lower
6 | CSC(=S)C=C([O][Ru][Cl])c1ccc(O)cc1.Cc1ccc(C(C)C)cc1 [Ru4, [(η^6-p-cymene)Ru(1-(4-hydroxyphenyl)-3-(methylthio)-3-thioxo-prop-1-en-1-olate-O,S)Cl]] | 21.4 | 27.9 | 1.3 | 26.3 | 21.8 | 1 | 21.4 | 
7 | [(η^6-p-cymene)Os(1-(2-ethoxyphenyl)-3-(methylthio)-3-thioxo-prop-1-en-1-olate-O,S)] [Os13] | 0.3 | 7.1 | 1.7 | 3.1 | 4.1 | 2.7 | 0.8 | 
8 | [(η^6-p-cymene)Ru(1-(3-butoxyphenyl)-3-(methylthio)-3-thioxo-prop-1-en-1-olate-O,S)] [Ru16] | 5.4 | 13.2 | 1 | 4.9 | 13.2 | 1.3 | 6.8 | 
9 | [(η^6-p-cymene)Ru(1-(4-butoxyphenyl)-3-(methylthio)-3-thioxo-prop-1-en-1-olate-O,S)] [Ru17] | 14.2 | 17.5 | 1 | 15.1 | 17.2 | 0.7 | 9.8 | 
10 | [(η^6-p-cymene)Ru(1-(4-methoxyphenyl)-3-(methylthio)-3-thioxo-prop-1-en-1-olate-O,S)] [Ru9] | 24.2 | 12.5 | 0.5 | 39.6 | 25.3 | 0.7 | 16.4 | 
11 | [(η^6-p-cymene)Ru(1-(2-ethoxyphenyl)-3-(methylthio)-3-thioxo-prop-1-en-1-olate-O,S)] [Ru13] | 2.6 | 17.4 | 1 | 28.4 | 16.9 | 1.8 | 4.8 | 
12 | [(η^6-p-cymene)Os(1-(3-ethoxyphenyl)-3-(methylthio)-3-thioxo-prop-1-en-1-olate-O,S)] [Os14] | 0.3 | 12.1 | 1.2 | 5.5 | 10.4 | 4.3 | 1.3 | 
13 | [(η^6-p-cymene)Ru(1-(2-methoxyphenyl)-3-(methylthio)-3-thioxo-prop-1-en-1-olate-O,S)] [Ru7] | 16.4 | 17.8 | 0.8 | 15.3 | 22.4 | 0.9 | 15 | 
14 | [(η^6-p-cymene)Ru(1-(3-methoxyphenyl)-3-(methylthio)-3-thioxo-prop-1-en-1-olate-O,S)] [Ru8] | 14.3 | 20.3 | 1 | 13.7 | 21.3 | 1.2 | 16.8 | 
15 | [(η^6-p-cymene)Os(1-(2-methoxyphenyl)-3-(methylthio)-3-thioxo-prop-1-en-1-olate-O,S)] [Os7] | 0.4 | 0.6 | 0.1 | 6.2 | 8.8 | 5.3 | 2.1 | 
16 | CCSC(=S)C=C([O][Ru][Cl])c1cccc(O)c1.Cc1ccc(C(C)C)cc1 [Ru5, [(η^6-p-cymene)Ru(1-(3-hydroxyphenyl)-3-(ethylthio)-3-thioxo-prop-1-en-1-olate-O,S)Cl]] | 44.9 | 9.3 | 0.6 | 11.5 | 15.4 | 0.2 | 8.1 | lower
17 | CCSC(=S)C=C([O][Ru][Cl])c1ccc(O)cc1.Cc1ccc(C(C)C)cc1 [Ru6, [(η^6-p-cymene)Ru(1-(4-hydroxyphenyl)-3-(ethylthio)-3-thioxo-prop-1-en-1-olate-O,S)Cl]] | 15.4 | 22.6 | 0.8 | 48.5 | 28.6 | 1 | 15.3 | 
